# Organism: Rattus norvegicus
# Assay: DrugMatrix - Regimen: Daily Repeat
# Type: toxicity, organism-based, Sprague-Dawley
# Design: regimen Daily Repeat, gender Male, age 6-8 weeks
# Details: in vivo, po, route oral GAVAGE, vehicle .5 % CMC; for ABSOLUTE BASOPHIL / ABSOLUTE EOSINOPHIL / ABSOLUTE LYMPHOCYTE / ABSOLUTE MONOCYTE / ABSOLUTE SEGMENTED NEUTROPHIL / BASOPHIL / EOSINOPHIL / ERYTHROCYTE COUNT / HEMATOCRIT / HEMOGLOBIN / LEUKOCYTE COUNT / LYMPHOCYTE / MEAN CORPUSCULAR HEMOGLOBIN / MEAN CORPUSCULAR HEMOGLOBIN CONCENTRATION / MEAN CORPUSCULAR VOLUME / MONOCYTE / NEUTROPHIL / NUCLEATED RED BLOOD CELLS / PLATELET COUNT: tissue Blood; for ALANINE AMINOTRANSFERASE / ALBUMIN / ALKALINE PHOSPHATASE / ASPARTATE AMINOTRANSFERASE / BLOOD UREA NITROGEN / CARBON DIOXIDE / CHLORIDE / CHOLESTEROL / CREATINE PHOSPHOKINASE / CREATININE / GLUCOSE / LACTATE DEHYDROGENASE / LIPASE / PHOSPHORUS / POTASSIUM / SODIUM / TOTAL BILIRUBIN / TOTAL PROTEIN / URIC ACID: tissue Plasma
# [1] = 0 mg/kg, 72 h, dose level Control, time 3 day
# [2] = 0 mg/kg, 120 h, dose level Control, time 5 day
# [3] = 3 mg/kg, 72 h, dose level Low, time 3 day
structure (smiles),measurement,setting,value
COc1nc(C)nc(Cl)c1N=C1NCCN1 [MOXONIDINE],ABSOLUTE BASOPHIL,[1],0 CELLS/uL
same,ABSOLUTE EOSINOPHIL,[1],47.67 CELLS/uL
same,ABSOLUTE LYMPHOCYTE,[1],15937.67 CELLS/uL
same,ABSOLUTE MONOCYTE,[1],138.33 CELLS/uL
same,ABSOLUTE SEGMENTED NEUTROPHIL,[1],1443 CELLS/uL
same,BASOPHIL,[1],0%
same,EOSINOPHIL,[1],0.33%
same,ERYTHROCYTE COUNT,[1],5.45 x10E6/uL
same,HEMATOCRIT,[1],34.43%
same,HEMOGLOBIN,[1],13.38 G/DL
same,LEUKOCYTE COUNT,[1],17.57 x10E3/uL
same,LYMPHOCYTE,[1],90.33%
same,MEAN CORPUSCULAR HEMOGLOBIN,[1],24.6 pg
same,MEAN CORPUSCULAR HEMOGLOBIN CONCENTRATION,[1],38.88 G/DL
same,MEAN CORPUSCULAR VOLUME,[1],63.27 fL
same,MONOCYTE,[1],0.83%
same,NEUTROPHIL,[1],8.5%
same,NUCLEATED RED BLOOD CELLS,[1],0 /100WBC
same,PLATELET COUNT,[1],1298 x10E3/uL
same,ALANINE AMINOTRANSFERASE,[1],47.67 u/L
same,ALBUMIN,[1],4.18 G/DL
same,ALKALINE PHOSPHATASE,[1],398.5 u/L
same,ASPARTATE AMINOTRANSFERASE,[1],93.17 u/L
same,BLOOD UREA NITROGEN,[1],16 mg/dL
same,CARBON DIOXIDE,[1],29.17 mmol/L
same,CHLORIDE,[1],98.17 MEQ/L
same,CHOLESTEROL,[1],68.83 mg/dL
same,CREATINE PHOSPHOKINASE,[1],467.33 u/L
same,CREATININE,[1],0.14 mg/dL
same,GLUCOSE,[1],151.67 mg/dL
same,LACTATE DEHYDROGENASE,[1],597.5 u/L
same,LIPASE,[1],9.33 u/L
same,PHOSPHORUS,[1],11.97 mg/dL
same,POTASSIUM,[1],6.43 MEQ/L
same,SODIUM,[1],140.68 MEQ/L
same,TOTAL BILIRUBIN,[1],0.18 mg/dL
same,TOTAL PROTEIN,[1],5.82 G/DL
same,URIC ACID,[1],1.48 mg/dL
same,ABSOLUTE BASOPHIL,[2],0 CELLS/uL
same,ABSOLUTE EOSINOPHIL,[2],31 CELLS/uL
same,ABSOLUTE LYMPHOCYTE,[2],14327.83 CELLS/uL
same,ABSOLUTE MONOCYTE,[2],102.83 CELLS/uL
same,ABSOLUTE SEGMENTED NEUTROPHIL,[2],1321.67 CELLS/uL
same,BASOPHIL,[2],0%
same,EOSINOPHIL,[2],0.17%
same,ERYTHROCYTE COUNT,[2],5.79 x10E6/uL
same,HEMATOCRIT,[2],36.1%
same,HEMOGLOBIN,[2],14.15 G/DL
same,LEUKOCYTE COUNT,[2],15.78 x10E3/uL
same,LYMPHOCYTE,[2],90.5%
same,MEAN CORPUSCULAR HEMOGLOBIN,[2],24.48 pg
same,MEAN CORPUSCULAR HEMOGLOBIN CONCENTRATION,[2],39.22 G/DL
same,MEAN CORPUSCULAR VOLUME,[2],62.4 fL
same,MONOCYTE,[2],0.67%
same,NEUTROPHIL,[2],8.67%
same,NUCLEATED RED BLOOD CELLS,[2],0.17 /100WBC
same,PLATELET COUNT,[2],1211.67 x10E3/uL
same,ALANINE AMINOTRANSFERASE,[2],49 u/L
same,ALBUMIN,[2],4.27 G/DL
same,ALKALINE PHOSPHATASE,[2],356.67 u/L
same,ASPARTATE AMINOTRANSFERASE,[2],90.17 u/L
same,BLOOD UREA NITROGEN,[2],20.5 mg/dL
same,CARBON DIOXIDE,[2],29.17 mmol/L
same,CHLORIDE,[2],98 MEQ/L
same,CHOLESTEROL,[2],69.83 mg/dL
same,CREATINE PHOSPHOKINASE,[2],312 u/L
same,CREATININE,[2],0.21 mg/dL
same,GLUCOSE,[2],149.83 mg/dL
same,LACTATE DEHYDROGENASE,[2],322 u/L
same,LIPASE,[2],10 u/L
same,PHOSPHORUS,[2],12 mg/dL
same,POTASSIUM,[2],6.75 MEQ/L
same,SODIUM,[2],142.8 MEQ/L
same,TOTAL BILIRUBIN,[2],0.17 mg/dL
same,TOTAL PROTEIN,[2],6.1 G/DL
same,URIC ACID,[2],1.68 mg/dL
same,ABSOLUTE BASOPHIL,[3],0 CELLS/uL
same,ABSOLUTE EOSINOPHIL,[3],88 CELLS/uL
same,ABSOLUTE LYMPHOCYTE,[3],13570 CELLS/uL
same,ABSOLUTE MONOCYTE,[3],44 CELLS/uL
same,ABSOLUTE SEGMENTED NEUTROPHIL,[3],1298 CELLS/uL
same,BASOPHIL,[3],0%
same,EOSINOPHIL,[3],0.67%
same,ERYTHROCYTE COUNT,[3],5.63 x10E6/uL
same,HEMATOCRIT,[3],34.87%
same,HEMOGLOBIN,[3],13.07 G/DL
same,LEUKOCYTE COUNT,[3],15 x10E3/uL
same,LYMPHOCYTE,[3],89.67%
same,MEAN CORPUSCULAR HEMOGLOBIN,[3],23.2 pg
same,MEAN CORPUSCULAR HEMOGLOBIN CONCENTRATION,[3],37.5 G/DL
same,MEAN CORPUSCULAR VOLUME,[3],61.9 fL
same,MONOCYTE,[3],0.33%
same,NEUTROPHIL,[3],9.33%
same,NUCLEATED RED BLOOD CELLS,[3],0 /100WBC
same,PLATELET COUNT,[3],1254.67 x10E3/uL
same,ALANINE AMINOTRANSFERASE,[3],48 u/L
same,ALBUMIN,[3],4 G/DL
same,ALKALINE PHOSPHATASE,[3],327.67 u/L
same,ASPARTATE AMINOTRANSFERASE,[3],95 u/L
same,BLOOD UREA NITROGEN,[3],17 mg/dL
same,CARBON DIOXIDE,[3],29 mmol/L
same,CHLORIDE,[3],99.33 MEQ/L
same,CHOLESTEROL,[3],69.67 mg/dL
same,CREATINE PHOSPHOKINASE,[3],328.67 u/L
same,CREATININE,[3],0.17 mg/dL
same,GLUCOSE,[3],144 mg/dL
same,LACTATE DEHYDROGENASE,[3],269.67 u/L
same,LIPASE,[3],10.33 u/L
same,PHOSPHORUS,[3],12.07 mg/dL
same,POTASSIUM,[3],5.9 MEQ/L
same,SODIUM,[3],142.9 MEQ/L
same,TOTAL BILIRUBIN,[3],0.23 mg/dL
same,TOTAL PROTEIN,[3],5.53 G/DL
same,URIC ACID,[3],1.4 mg/dL
